Test results: paper PMC5100903, “Tissue Kallikrein Inhibitors Based on the Sunflower Trypsin Inhibitor Scaffold – A Potential Therapeutic Intervention for Skin Diseases” (PLoS ONE, 2016)
Like-named read-outs stand apart in the source and are kept apart here. Positions of bridges follow the written chain, without caps; N, C: chain ends. Residues, ends and D or L forms follow the SMILES beside them.

Columns and labels:
[1] = target: T1, Porcine Pancreatic Elastase 1 (Sus scrofa, UniProt P00772); test: Porcine pancreatic elastase 1 inhibition, MeOSuc-AAPV-AMC assay; format: biochemical; details: read-out: % inhibition of Porcine Pancreatic Elastase 1
T1 construct: purchased Sigma
T1 sequence (P00772 27-266): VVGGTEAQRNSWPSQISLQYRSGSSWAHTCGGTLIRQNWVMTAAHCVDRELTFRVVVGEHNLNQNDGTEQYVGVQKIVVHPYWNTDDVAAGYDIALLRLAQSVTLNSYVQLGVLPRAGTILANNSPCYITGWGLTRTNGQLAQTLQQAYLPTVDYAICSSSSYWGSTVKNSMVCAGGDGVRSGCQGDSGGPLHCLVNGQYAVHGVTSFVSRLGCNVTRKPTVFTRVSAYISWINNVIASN
Method: (§1) All assays were performed on 96-well microplates and the change in relative fluorescence unit (RFU) was measured by fluorescence spectrometer (BMG FLUOstar OPTIMA). The excitation/emission wavelength was 360/460 nm for the substrate Boc-VPR-AMC (Bachem AG, Hauptstrasse, Switzerland) and MeOSuc-AAPV-AMC (Bachem AG, Hauptstrasse, Switzerland) and 485/520 nm for BODIPY_FL casein (Invitrogen, Carlsbad, US). Stock solution of Boc-VPR-AMC was prepared by dissolving the solid in dimethyl sulfoxide to 100 mM and 10 mM for MeOSuc-AAPV. For BODIPY_FL casein, it was reconstituted to 1 mg/mL in 1xPBS. […] The % of inhibition was calculated by the following equation: % of Inhibition=(1−(Sample RFU − Min RFU)/(Max RFU − Min RFU)) X100
(§2) Each inhibition curves were done in triplicates with a minimum of five concentration points fitted. Fitting of each curve was done using SigmaPlot with the Four Parameter Logistic Function and the IC50 calculated. […] All tested compounds were reconstituted to stock solution in water.
(§3) The diluent for all the tested compounds, protein and substrate (except KLK7, which was done with 10 mM Tris pH 7.8) was 1xPBS pH 8.0–8.9. The serially diluted ligands were mixed with diluted bovine trypsin (Sigma, Dorset, U.K.) or activated KLK14, or KLK5, or activated KLK8 or matriptase (catalytic domain only, >90% purity by SDS-PAGE, endotoxin <0.1 ng/μg, R&D, Minneapolis, U.S.) or activated KLK7 or human neutrophil elastase (purified from human plasma, >95% purity by SDS-PAGE, Abcam, Cambridge, U.K.) or porcine pancreatic elastase 1 (Sigma, Dorset, U.K.) or human plasma kallikrein or human plasma plasmin (purified from human plasma, ≥95% purity by SDS-PAGE, BioVision, Milpitas, U.S.). 20μL of the ligand-protein mixture was pipetted to a well of a 96-well microplate in triplicates. The reaction was started by addition of 90–100 μL of the diluted substrate solution (contained 0.05% v/v Brij35) and the plate incubated at 25°C but 37°C for KLK7. RFU reading for each well was taken 6 minutes (trypsin) or 15 minutes (KLK14, KLK5, KLK8, matriptase, human neutrophil elastase, porcine pancreatic elastase 1, plasma kallikrein and plasmin) or 20 hours (KLK7) after substrate addition.

[2] = target: T2, Matriptase (catalytic domain only) (Homo sapiens, UniProt Q9Y5Y6); test: biochemical
T2 construct: matriptase (catalytic domain only, >90% purity by SDS-PAGE); purchased R&D
T2 sequence (Q9Y5Y6 615-854 limits assumed): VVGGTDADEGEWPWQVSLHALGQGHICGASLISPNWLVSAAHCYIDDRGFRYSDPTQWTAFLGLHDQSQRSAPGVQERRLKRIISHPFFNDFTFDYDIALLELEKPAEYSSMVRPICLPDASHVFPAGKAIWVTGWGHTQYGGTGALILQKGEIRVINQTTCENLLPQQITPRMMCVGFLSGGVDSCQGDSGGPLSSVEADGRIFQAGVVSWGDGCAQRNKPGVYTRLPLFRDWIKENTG
Method: as §1, §2, §3

[3] = target: T3, Human Plasma Plasmin (Homo sapiens, UniProt P00747); test: biochemical
T3 construct: human plasma plasmin (purified from human plasma); purchased BioVision; host or cells: human plasma
T3 sequence (P00747 581-810 limits assumed): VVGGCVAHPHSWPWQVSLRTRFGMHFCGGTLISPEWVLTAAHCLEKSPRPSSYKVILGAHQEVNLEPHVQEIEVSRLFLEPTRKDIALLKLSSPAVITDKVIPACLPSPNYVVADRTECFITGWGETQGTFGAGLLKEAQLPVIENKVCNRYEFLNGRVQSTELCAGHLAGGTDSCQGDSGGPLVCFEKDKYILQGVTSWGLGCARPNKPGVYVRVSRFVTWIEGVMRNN
T3 sequence (P00747 98-580 partner limits assumed): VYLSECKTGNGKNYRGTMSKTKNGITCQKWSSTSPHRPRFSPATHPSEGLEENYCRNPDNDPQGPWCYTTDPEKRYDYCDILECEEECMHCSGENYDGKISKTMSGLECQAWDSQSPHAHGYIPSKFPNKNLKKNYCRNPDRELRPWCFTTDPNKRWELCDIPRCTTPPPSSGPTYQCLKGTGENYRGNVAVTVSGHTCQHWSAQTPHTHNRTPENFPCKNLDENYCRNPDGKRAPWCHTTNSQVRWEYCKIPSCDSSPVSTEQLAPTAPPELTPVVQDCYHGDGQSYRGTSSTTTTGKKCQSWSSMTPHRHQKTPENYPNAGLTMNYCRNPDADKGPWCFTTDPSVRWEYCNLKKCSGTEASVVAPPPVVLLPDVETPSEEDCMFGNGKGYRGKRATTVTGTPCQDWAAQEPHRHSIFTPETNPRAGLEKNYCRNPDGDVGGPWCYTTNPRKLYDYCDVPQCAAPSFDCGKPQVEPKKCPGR
Method: as §1, §2, §3

[4] = target: T4, KLK8 (Homo sapiens, UniProt O60259); test: biochemical
T4 construct: purchased R&D
T4 sequence (O60259 33-260): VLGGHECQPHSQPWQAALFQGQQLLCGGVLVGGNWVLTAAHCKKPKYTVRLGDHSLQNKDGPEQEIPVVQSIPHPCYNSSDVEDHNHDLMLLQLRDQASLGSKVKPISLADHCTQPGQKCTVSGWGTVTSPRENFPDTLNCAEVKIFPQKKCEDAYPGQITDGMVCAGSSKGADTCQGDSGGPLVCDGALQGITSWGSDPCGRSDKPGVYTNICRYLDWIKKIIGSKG
Method: as §1, §2
(§4) Recombinant KLK7, KLK8 and KLK14 (>95% purity by SDS-PAGE, endotoxin <0.1 ng/μg, R&D, Minneapolis, U.S.) stocks were diluted with 1xPBS to a concentration of 120 nM. KLK7 and KLK14 were activated by addition of 1 mM f/c CaCl2 (Sigma, Dorset, U.K.), 0.05% v/v Brij35 (Sigma, Dorset, U.K.), 20 nM f/c thermolysin (Sigma, Dorset, U.K.) and incubated at 37°C for 1 hour. The reaction was stopped by addition of ethylenediaminetetraacetic acid (EDTA, 50 mM f/c). KLK8 was activated by addition of 11 nM f/c lysyl endopeptidase (Santa Cruz Biotechnology, Dallas, U.S.) and incubation at 37°C for 0.5 hour. […] The RFU value reached by the thermolysin control was used as the minimum RFU for calculating the % of inhibition for KLK7.
as §3

[5] = target: T5, KLK7 (Homo sapiens, UniProt P49862); test: biochemical; details: for inhibition at 11 µM: read-out: % inhibition of KLK7
T5 construct: purchased R&D
T5 sequence (P49862 30-253): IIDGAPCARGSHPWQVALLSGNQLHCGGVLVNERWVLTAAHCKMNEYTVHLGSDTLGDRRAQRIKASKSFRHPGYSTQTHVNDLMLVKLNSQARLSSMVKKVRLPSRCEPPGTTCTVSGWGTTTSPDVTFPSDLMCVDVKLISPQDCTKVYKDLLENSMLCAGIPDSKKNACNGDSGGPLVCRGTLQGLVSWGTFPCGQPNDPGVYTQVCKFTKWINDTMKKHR
Method: as §1, §2, §4, §3

[6] = target: T6, KLK5 (Homo sapiens, UniProt Q9Y337); test: biochemical
T6 construct: purchased Novoprotein
T6 sequence (Q9Y337 23-293): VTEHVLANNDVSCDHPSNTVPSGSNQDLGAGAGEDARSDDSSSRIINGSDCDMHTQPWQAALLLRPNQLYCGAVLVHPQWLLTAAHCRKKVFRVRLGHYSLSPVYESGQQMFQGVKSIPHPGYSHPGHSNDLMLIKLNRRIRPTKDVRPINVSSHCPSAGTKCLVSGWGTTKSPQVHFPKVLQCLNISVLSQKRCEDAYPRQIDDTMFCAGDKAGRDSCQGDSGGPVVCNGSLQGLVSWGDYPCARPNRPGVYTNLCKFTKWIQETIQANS
Method: as §1, §2, §3
There are two previously reported Km values for KLK5 and its substrate Boc-VPR-AMC which allowed the IC50 to Ki conversion. Ki values were calculated according to the Cheng-Prusoff equation Ki= IC50/1+[S]/Km for single site competitive binding.

[7] = at 10 μM, enzyme 46 nM, MeOSuc-AAPV-AMC 41 μM
[8] = enzyme 24 nM, Boc-VPR-AMC 42 μM, 25°C, 15 minutes
[9] = calculated from Table 3 IC50 by Cheng-Prusoff equation, read-out: Ki, KLK5 (converted)
[10] = enzyme 10 nM, Boc-VPR-AMC 42 μM, 1xPBS pH 8.0–8.9, 25°C, 15 minutes
[11] = enzyme 9 nM, Boc-VPR-AMC 42 μM, 25°C, 15 minutes
[12] = at 11 μM, enzyme 10 nM, BODIPY_FL casein 6.5 μg/mL, 37°C, 20 hours

Structure (SMILES)	inhibition at 10 µM [1] [%]	IC50 [2] [µM]	IC50 [3] [µM]	IC50 [4] [µM]	inhibition at 11 µM [5] [%]	IC50 [6] [µM]	Ki [6] [µM]	IC50 [5] [µM]	inhibition at 10 µM [1, 7] [%]	IC50 ([2]; enzyme 10 nM, Boc-VPR-AMC 21 μM, 25°C, 15 minutes) [µM]	IC50 [3, 8] [µM]	Ki [6, 9] [µM]	IC50 [6, 10] [µM]	IC50 [4, 11] [µM]	inhibition at 11 µM [5, 12] [%]
CC[C@H](C)[C@@H]1NC(=O)[C@H](CO)NC(=O)[C@H](CCCCN)NC(=O)[C@H]([C@@H](C)O)NC(=O)[C@@H]2CSSC[C@H](NC(=O)[C@H](Cc3c[nH]cn3)NC(=O)[C@@H]3CCCN3C(=O)[C@@H]3CCCN3C1=O)C(=O)N[C@@H](Cc1c[nH]c3ccccc13)C(=O)N1CCC[C@H]1C(=O)N[C@@H](CC(=O)O)C(=O)NCC(=O)N[C@@H](CCCNC(=N)N)C(=O)N2 [Analogue 2] (cyclo(CTKSIPPHCWPDGR); disulfide 1-9)	0	0.206 ± 0.01	0.025 ± 0.001	0.563 ± 0.014	28										
CC[C@H](C)[C@@H]1NC(=O)[C@H](CO)NC(=O)[C@H](CCCNC(=N)N)NC(=O)[C@H]([C@@H](C)O)NC(=O)[C@@H]2CSSC[C@H](NC(=O)[C@H](Cc3c[nH]cn3)NC(=O)[C@@H]3CCCN3C(=O)[C@@H]3CCCN3C1=O)C(=O)N[C@@H](Cc1c[nH]c3ccccc13)C(=O)N1CCC[C@H]1C(=O)N[C@@H](CC(=O)O)C(=O)NCC(=O)N[C@@H](CCCNC(=N)N)C(=O)N2 [Analogue 6] (cyclo(CTRSIPPHCWPDGR); disulfide 1-9)	0	0.381 ± 0.012	0.407 ± 0.008	0.373 ± 0.031		0.056 ± 0.0005	0.051	0.534 ± 0.029							
CC[C@H](C)[C@@H]1NC(=O)[C@H](CO)NC(=O)[C@H](CCCCN)NC(=O)[C@H]([C@@H](C)O)NC(=O)[C@@H]2CSSC[C@H](NC(=O)[C@H](Cc3c[nH]cn3)NC(=O)[C@@H]3CCCN3C(=O)[C@@H]3CCCN3C1=O)C(=O)N[C@@H](Cc1ccccc1)C(=O)N1CCC[C@H]1C(=O)N[C@@H](CC(=O)O)C(=O)NCC(=O)N[C@@H](CCCNC(=N)N)C(=O)N2 [Analogue I10H] (cyclo(CFPDGRCTKSIPPH); disulfide 1-7)									0	2.24 ± 0.567	0.161 ± 0.006	0.478	0.523 ± 0.011	1.68 ± 0.051	0
CC[C@H](C)[C@@H]1NC(=O)[C@@H]2CCCN2C(=O)[C@@H]2CCCN2C(=O)[C@H]([C@@H](C)CC)NC(=O)[C@H](CO)NC(=O)[C@H](CCCCN)NC(=O)[C@H]([C@@H](C)O)NC(=O)[C@@H]2CSSC[C@H](NC1=O)C(=O)N[C@@H](Cc1ccccc1)C(=O)N1CCC[C@H]1C(=O)N[C@@H](CC(=O)O)C(=O)NCC(=O)N[C@@H](CCCNC(=N)N)C(=O)N2 [Native SFTI, Sunflower Trypsin Inhibitor 1, reference compound]		1.25 ± 0.057							0		0.024 ± 0.004	0.21	0.23 ± 0.003	1.29 ± 0.251	18
